Measured values taken from US11267809B2, “BAF complex modulating compounds and methods of using the same” (THE BOARD OF TRUSTEES OF THE LELAND STANFORD JUNIOR …, priority 2017, dated 2022).

What was measured:
Bmi1 expression = assay: Screen for increased expression of Bmi1 (BAF target) in mESCs; type: cell-based, mouse; settings: mESC screen
Source text: This synthetic lethal interaction has been attributed to the increased dependency of ARID1A-deficient cells on the ATR-mediated G2/M decatenation checkpoint following loss of ARID1A-mediated interactions of the BAF complex with TOP2A^7,27. Utilizing the knowledge that one of the BAF complex's diverse and essential functions involves repression of specific genes in embryonic stem cells^28, we developed a screening strategy to identify compounds that upregulate target genes repressed by the embryonic BAF complex (esBAF) in mESCs including Bmil, Ringl, and Fgf4 (FIG. 1b)^16,29. Given that the loss of ARID1A (a functionally critical, mechanistically elusive, and frequently mutated subunit of the BAF complex) sensitizes cancer cells to inhibition of the ATR kinase, we sought to identify whether our putative esBAF inhibitors (FIG. 1c) might phenocopy the loss of ARID1A in cancer cells and thereby synergize with ATR inhibitors.
We recently completed a large-scale screen to identify small molecules that result in increased expression of Bmi1, a known genetic target of BAF whose expression is increased about 6- to 12-fold upon deletion of the SMARCA4 ATPase subunit of the BAF complex^29. […]

mESCs = assay: Toxicity in mouse embryonic stem cells (cell cycle arrest); type: cell-based
Protocol: From our initial Bmi1 screen, we chose 8 representative compounds to compare to the lead candidate which were either commercially available, or comprised of the same oxadiazacyclodecone 12-member macrocyclic stereoisomer backbone as Baficillin1. […] To examine a structure-activity-relationship of the compounds, HCT116 cells were then treated with increasing doses of VE-821 (1 uM-30 uM) and increasing doses of the putative inhibitors (1 uM-30 uM), both independently and with all possible combinations followed by quantification of synergy (FIG. 4c-h).
FIG. 4: Structure Activity Relationship of Putative BAF Inhibitors. […]
For hour-by-hour analysis, cells were collected, rinsed with PBS, and vortexed while adding 1mL ice cold 70% ethanol. […] Individual cells were gated based on forward and side scatter, auto fluorescent cells were omitted, and remaining cells were then analyzed for propidium iodide levels. To determine the percent of cells in each phase, DNA content histograms histograms were analyzed using R-package “mixtools” EM algorithm for mixtures of univariate normals. The areas of each mixed normal distribution were calculated to represent the total number of cells in each phase of the cell cycle. […] ESCs were incubated with BrdU for 1 h and the percent of cells in G2/M, stained with 7-AAD and analyzed on a BD FACScan.

[1] = test system: HCT116 (ARID1A−/−) cell line; assay: Synergy viability assay, HCT116 ARID1A(-/-); type: cell-based, human
Source text: SMARCA4, the primary target of our original screen, is present in both human BAF and PBAF complexes in cancer^12. PBAF complexes differ from BAF complexes by incorporation of specific subunits. Specifically, PBAF complexes contain ARID2 (as opposed to ARID1A/B), PHF10 (BAF45a) (as opposed to […] (BAF45d)), PBRM1, and lack the BAF-specific subunit SS18. PBAF specific subunits are also frequently mutated in cancer, specifically renal clear cell carcinomas and cholangiocarcinomas^33-36. To assess whether the lead compound is targeting BAF, PBAF complexes, or both, we constitutively knocked down ARID1A or ARID2 by lentiviral transduction of HCT116 cells and compared the BAFi/ATRi synergy to the wild-type (ARID1A+/+).
Isogenic HCT116 ARID1A(+/+) and ARID1A(−/−) cell lines were originally obtained from Horizon Discovery. MCF-7, Cal-51, A-704, and MDA-MB-436, MDA-MB-468, HCC1143, HCC1187, HCC1954, and ACHN cell lines were obtained from American Type […]. All cell lines were grown in McCoy's 5a Media supplemented with 10% FBS.
Viability assays were performed in 384-well plates. Cells were plated at 500 cells/well. Each drug was administered in 5-doses with 4 replicates per plate, and each 5×5 drug combination was administered with 8 replicates per plate, 24 hours after seeding. All error bars represent 4 or 8 technical replicates averaged over 3 independent experiments. Media containing fresh drug was replaced every 48 hours. After 5 days, cellular viability was measured using CellTitre blue, as described by the manufacturer.

Q: Which “activation of Bmi1 and other BAF targets” value (Bmi1 expression) does the source give for `CO[C@H]1CN(C)C(=O)c2cc(NC(=O)NC(C)C)ccc2OC[C@H](C)N(Cc2ccc(-c3ccccn3)cc2)C[C@@H]1C` [Baficillin1] here?
A: The value was “robust activation”.

Q: And the “toxicity in mESCs” value (mESCs)?
A: The value was “largely non-toxic”.

Q: And the “sensitivity (cell survival) compared to wild-type HCT116” value ([1]; single agent, 5 continuous days)?
A: The value was “slightly less sensitive”.

Q: And the “combination index (CI −/−)” value ([1]; with VE-821, 5 days)?
A: The value was 1.44±0.12.
